Measurements from PubChem BioAssay AID1199 (EPA DSSTox, 2008).
The source made the active and inactive calls.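 Rule for the calls: active = a tumour-causing dose and a tumour site recorded for mice in at least one sex group; inconclusive = only government mouse studies exist and were judged inadequate; inactive = mouse studies exist but none gave tumours.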

Tested on: mouse carcinogenicity bioassay, TD50 from CPDB
Experiment: DSSTox (CPDBAS) Carcinogenic Potency Database Summary Mouse Bioassay Results
Settings: not given
Method in brief: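 Values are TD50 carcinogenic potencies from mouse chronic bioassays, taking the most positive result for each sex-species. Sources are published literature and NCI/NTP studies; target sites reflect author-reported positive findings.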

Compound | Potency
CCCCN(CCCC)N=O | 0.00689 mmol/kg/day
c1ccc2c(c1)ccc1cc3c(ccc4ccccc43)cc12 | 0.0211 mmol/kg/day
CCC1NC(=O)C2C(Cl)C(Cl)CN2C(=O)C(CO)NC(=O)CC(c2ccccc2)NC(=O)C(CO)NC1=O (stereo not given) | 0.0412 mmol/kg/day
O=C1c2cccc(O)c2C(=O)c2c(O)cccc21 | 0.837 mmol/kg/day
Nc1cccc2ccccc12 | 0.47 mmol/kg/day
Nc1ccc(-c2ccc(N)cc2)cc1 | 0.108 mmol/kg/day

Same assay, conditions: TD50_Mouse_Note: TD50 is harmonic mean of more than one positive test; TD50_Mouse_mmol was not calculated for this mixture, but Activiity; TargetSites_Mouse_Female: liver

Compound | outcome
CC(C)CCCCCCOC(=O)c1ccccc1C(=O)OCCCCCCC(C)C | active; liver

Same assay, conditions: TD50_Mouse_Note: TD50 is harmonic mean of more than one positive test; TargetSites_Mouse_Female: harderian gland; liver; thyroid gland

Compound | Potency
Nc1ccc(Oc2ccc(N)cc2)cc1 | 0.168 mmol/kg/day

Same assay, conditions: TD50_Mouse_Note: TD50 is harmonic mean of more than one positive test; TargetSites_Mouse_Female: harderian gland; liver; vascular system

Compound | Potency
Nc1ccc(-c2ccc(N)cc2)cc1 | 0.0766 mmol/kg/day

Same assay, conditions: TD50_Mouse_Note: TD50 is harmonic mean of more than one positive test; TargetSites_Mouse_Female: hematopoietic system; lung

Compound | Potency
Cc1ncc([N+](=O)[O-])n1CCO | 2.96 mmol/kg/day

Same assay, conditions: TD50_Mouse_Note: TD50 is harmonic mean of more than one positive test; TargetSites_Mouse_Female: liver

Compound | Potency
CCCCC(CC)COC(=O)CCCCC(=O)OCC(CC)CCCC (stereo not given) | 10.5 mmol/kg/day
Cc1c([N+](=O)[O-])c(C)c([N+](=O)[O-])c(C(C)(C)C)c1[N+](=O)[O-] | 0.427 mmol/kg/day
Nc1cc(S(=O)(=O)[O-])cc2cc(S(=O)(=O)[O-])c(N=Nc3ccc(-c4ccc(N=Nc5c(S(=O)(=O)[O-])cc6cc(S(=O)(=O)[O-])cc(N)c6c5O)c(O)c4)cc3O)c(O)c12.[Cu].[Cu].[Na+].[Na+].[Na+].[Na+] | 0.788 mmol/kg/day
CC(=O)Nc1ccc(O)cc1 | 10.7 mmol/kg/day
ClC(Cl)C(Cl)(Cl)Cl | 0.283 mmol/kg/day
Nc1ccc(Cl)cc1N | 9.4 mmol/kg/day
Cc1cc(O)c2c(c1O)C(=O)C13C(=C2O)C(=O)C2C(O)C1C1C(O)C3C(=O)C3=C(O)c4c(O)cc(C)c(O)c4C(=O)C321 (stereo not given) | 0.0324 mmol/kg/day

Same assay, conditions: TD50_Mouse_Note: TD50 is harmonic mean of more than one positive test; TargetSites_Mouse_Female: liver; lung; stomach

Compound | Potency
CC[C@H](C)C(=O)O[C@H]1C[C@@H](C)C=C2C=C[C@H](C)[C@H](CC[C@@H]3C[C@@H](O)CC(=O)O3)[C@H]21 | 1.27 mmol/kg/day

Same assay, conditions: TD50_Mouse_Note: TD50 is harmonic mean of more than one positive test; TargetSites_Mouse_Female: liver; lung; thyroid gland

Compound | Potency
Nc1cccc2c(N)cccc12 | 1.02 mmol/kg/day

Same assay, conditions: TD50_Mouse_Note: TD50 is harmonic mean of more than one positive test; TargetSites_Mouse_Female: liver; stomach

Compound | Potency
c1ccc2c(c1)[nH]c1ccccc12 | 0.981 mmol/kg/day

Same assay, conditions: TD50_Mouse_Note: TD50 is harmonic mean of more than one positive test; TargetSites_Mouse_Female: liver; vascular system

Compound | Potency
Nc1ccc2c(n1)[nH]c1ccccc12 | 0.272 mmol/kg/day

Same assay, conditions: TD50_Mouse_Note: TD50 is harmonic mean of more than one positive test; TargetSites_Mouse_Female: mammary gland

Compound | Potency
C[C@H]([C@H](O)CCC(C)(C)O)[C@H]1CC[C@@]2(O)C3=CC(=O)[C@@H]4C[C@@H](O)[C@@H](O)C[C@]4(C)[C@H]3CC[C@]12C | 7.7e-05 mmol/kg/day

Same assay, conditions: TD50_Mouse_Note: TD50 is harmonic mean of more than one positive test; TargetSites_Mouse_Female: small intestine

Compound | Potency
O=C1c2ccccc2C(=O)N1SC(Cl)(Cl)Cl | 5.23 mmol/kg/day

Same assay, conditions: TD50_Mouse_Note: TD50 is harmonic mean of more than one positive test; TargetSites_Mouse_Female: stomach

Compound | Potency
O=NN1CCN(N=O)CC1 | 0.025 mmol/kg/day
c1ccc(C2CO2)cc1 (stereo not given) | 0.982 mmol/kg/day
CC(C)=CCl | 0.165 mmol/kg/day

Same assay, conditions: TD50_Mouse_Note: TD50 is harmonic mean of more than one positive test; TargetSites_Mouse_Female: urinary bladder

Compound | Potency
COc1ccccc1N | 6.05 mmol/kg/day

Same assay, conditions: TD50_Mouse_Note: TD50 is harmonic mean of more than one positive test; greater than ten-fold variation among TD50 values for positive res; TargetSites_Mouse_Female: gall bladder; liver; lung; vascular system

Compound | Potency
CN(N)C=O | 0.0185 mmol/kg/day

Same assay, conditions: TD50_Mouse_Note: TD50 is harmonic mean of more than one positive test; greater than ten-fold variation among TD50 values for positive res; TargetSites_Mouse_Female: liver

Compound | Potency
COC(=O)C(C)(C)Oc1ccc(-c2ccc(Cl)cc2)cc1 | 0.00824 mmol/kg/day
Cc1nc(N)cc2[nH]c3ccccc3c12 | 0.049 mmol/kg/day

Same assay, conditions: TD50_Mouse_Note: TD50 is harmonic mean of more than one positive test; greater than ten-fold variation among TD50 values for positive res; TargetSites_Mouse_Female: liver; lung; TargetSites_Mouse_BothSexes: mammary gland

Compound | Potency
NNC(=O)c1ccncc1 | 0.198 mmol/kg/day

Same assay, conditions: TD50_Mouse_Note: TD50 is harmonic mean of more than one positive test; greater than ten-fold variation among TD50 values for positive res; TargetSites_Mouse_Female: lung

Compound | Potency
CCOC(N)=O | 0.19 mmol/kg/day

Same assay, conditions: TD50_Mouse_Note: TD50 is harmonic mean of more than one positive test; harmonic mean of TD50 includes a value for upper 99% confidence li; TargetSites_Mouse_Female: liver

Compound | Potency
CCC1(c2ccccc2)C(=O)N=C(O)NC1=O (stereo not given) | 0.117 mmol/kg/day
CCC1(c2ccccc2)C(=O)NC(=O)NC1=O | 0.0317 mmol/kg/day

Same assay, conditions: TD50_Mouse_Note: no positive results

Compound | outcome
CC1=C[C@H]2O[C@@H]3[C@H](O)C[C@@](C)(C34CO4)[C@@]2(CO)[C@H](O)C1=O (stereo not given in full) | inactive; no positive results
[Se] | inactive
O=C(O)O | inactive; no positive results

Same assay, conditions: TD50_Mouse_Note: no positive results; TargetSites_Mouse_Female: no positive results

Compound | outcome
CN[C@@H](C)[C@H](O)c1ccccc1 | inactive; no positive results
CCC(O)OC(O)CC (stereo not given) | inactive; no positive results
CNc1ncnc2c1ncn2[C@@H]1O[C@H](CO)[C@@H](O)[C@H]1O | inactive; no positive results
COP(=S)(OC)Oc1ccc(SC)c(C)c1 | inactive; no positive results
CN(C)[C@@H]1C(=O)C(C(N)=O)=C(O)[C@@]2(O)C(=O)C3=C(O)c4c(O)cccc4[C@@](C)(O)[C@H]3C[C@@H]12 | inactive; no positive results
CC1(C)[C@H](C(=O)O[C@H](C#N)c2cccc(Oc3ccccc3)c2)[C@@H]1C=C(Br)Br | inactive; no positive results
c1ccc(-c2ccccc2)cc1 | inactive; no positive results
C=Cc1cccc[n+]1[O-] | inactive
C[C@]12CC[C@@H]3c4ccc(O)cc4CC[C@H]3[C@@H]1CC[C@@H]2O | inactive
CCCCCCCCCCCCN=C(N)N | inactive; no positive results
CC(C)=CCC/C(C)=C/C=O | inactive; no positive results
O=C1C(Cl)=C(Cl)C(=O)c2ccccc21 | inactive; no positive results
Nc1nc(N)nc(N)n1 | inactive; no positive results
CS(=O)(=O)OCCCNCCCOS(C)(=O)=O | inactive; no positive results
Nc1cc([N+](=O)[O-])ccc1O | inactive; no positive results
CN[C@H]1CC[C@@H](c2ccc(Cl)c(Cl)c2)c2ccccc21 | inactive; no positive results
CCN(CC)C(=O)/C(Cl)=C(\C)OP(=O)(OC)OC | inactive; no positive results
O=[N+]([O-])c1ccc(Nc2ccc(Nc3ccccc3)c(S(=O)(=O)O)c2)c([N+](=O)[O-])c1 | inactive; no positive results
CN(C)CCC(c1ccc(Cl)cc1)c1ccccn1 (stereo not given) | inactive; no positive results
Cc1cc(O)c(C(C)(C)C)cc1Sc1cc(C(C)(C)C)c(O)cc1C | inactive; no positive results

Compound | outcome
CN(C)C(=S)SSC(=S)N(C)C | inactive; no positive results
[Cd+2].[Cl-].[Cl-] | inactive
O=C(O)CC[N+](=O)[O-] | inactive; no positive results
Oc1c(Cl)cc(Cl)c(Cl)c1Cc1c(O)c(Cl)cc(Cl)c1Cl | inactive; no positive results
[Cl-].[Cl-].[Sn+2] | inactive; no positive results
CC1=C(/C=C/C(C)=C/C=C/C(C)=C/C(=O)O)C(C)(C)CCC1 | inactive; no positive results
Nc1c(Cl)c(Cl)nc(C(=O)O)c1Cl | inactive; no positive results
CCC(=O)C(CC(C)N(C)C)(c1ccccc1)c1ccccc1 (stereo not given) | inactive; no positive results
CC(=O)Nc1ccc(OCC(O)CNC(C)C)cc1 (stereo not given) | inactive; no positive results
O=C(O)CCCC/C=C(\c1ccccc1)c1cccnc1 | inactive; no positive results
Oc1ccccc1 | inactive; no positive results
O=S(=O)([O-])[O-].[O]=[V+2] | inactive; no positive results
O=c1c(O)c(-c2ccc(O)c(O)c2)oc2cc(O)cc(O)c12 | inactive; no positive results
Cc1[nH]cnc1CSCCN=C(NC#N)N(C)N=O | inactive
Cc1cccc(OCC(O)CNC(C)(C)C)c1C (stereo not given) | inactive; no positive results
CN=C(NC#N)NCCSCc1nc[nH]c1C | inactive
COc1ccc(N)cc1 | inactive; no positive results
O=C(NCC1CCCCN1)c1cc(OCC(F)(F)F)ccc1OCC(F)(F)F (stereo not given) | inactive; no positive results
CCOC(=O)[C@]1(c2ccccc2)CCC=C[C@H]1N(C)C | inactive; no positive results
IC(I)I | inactive; no positive results

Same assay, conditions: TD50_Mouse_Note: only experiment is NCI/NTP bioassay inadequate; TargetSites_Mouse_Female: NTP bioassay inadequate

Compound | outcome
COc1cc2c(c3c1c(=O)c1ccccc1n3C)C=CC(C)(C)O2 | ntp bioassay inadequate

Same assay, conditions: TD50_Mouse_Note: positive test results only by intraperitoneal or intravenous injection; TD50 is harmonic mean of more than one positive; TargetSites_Mouse_Female: hematopoietic system; lung; nervous system; uterus

Compound | Potency
CNNCc1ccc(C(=O)NC(C)C)cc1 | 0.00216 mmol/kg/day

Same assay, conditions: TD50_Mouse_Note: positive test results only by intraperitoneal or intravenous injection; TD50 is harmonic mean of more than one positive; TargetSites_Mouse_Female: kidney; lung

Compound | Potency
CN(N=O)C(=O)N[C@@H]1[C@@H](O)[C@H](O)[C@@H](CO)O[C@@H]1O | 0.00103 mmol/kg/day

Same assay, conditions: TargetSites_Mouse_BothSexes: liver; mammary gland

Compound | Potency
COc1cc(/C=N/NC(=O)c2ccncc2)ccc1O | 0.101 mmol/kg/day

Same assay, conditions: TargetSites_Mouse_BothSexes: no positive results

Compound | outcome
C[C@H](CCC(=O)O)[C@H]1CC[C@H]2[C@@H]3[C@H](O)C[C@@H]4C[C@H](O)CC[C@]4(C)[C@H]3CC[C@]12C | inactive
O=S(=O)([O-])[O-].O=S(=O)([O-])[O-].[Zr+4] | inactive

Same assay, conditions: TargetSites_Mouse_Female: liver

Compound | Potency
CCCCC(CC)CO (stereo not given) | 12.9 mmol/kg/day
Cc1ccc2c(c1N)C(=O)c1ccccc1C2=O | 0.733 mmol/kg/day

Same assay, conditions: TargetSites_Mouse_Female: no positive results

Compound | Potency
CC(=O)OC[C@]12C[C@H](OC(=O)CC(C)C)C(C)=C[C@H]1O[C@@H]1[C@H](O)[C@@H](OC(C)=O)[C@@]2(C)C12CO2 (stereo not given in full) | 0.00189 mmol/kg/day
[O-][Br+2]([O-])O | 0.322 mmol/kg/day
Nc1c(Cl)cc(Cl)cc1Cl | 1.32 mmol/kg/day

Same assay, conditions: TargetSites_Mouse_Female: stomach

Compound | Potency
NNc1nc(-c2ccc([N+](=O)[O-])o2)cs1 | 0.0725 mmol/kg/day

Same assay, conditions: TargetSites_Mouse_Female: uterus

Compound | Potency
CCCl | 28.1 mmol/kg/day
